Reference: US20080146457A1, “METHOD FOR THE DETERMINATION OF CELL ACTIVATION” (priority 2003, published 2008)

Tests used:
Type in all cases: cell-based
[1] = test system: JNK1/2; test: Level of phosphorylation of JNK1/2 in anisomycin-treated Jurkat cells on multiplex arrays
Description: (§1) Hybridization chambers were placed onto diaglass functionalized slides (EAT, Namur, Belgium) spotted with antibodies specific of the protein to be detected, in this case anti-Akt antibodies. The spotting was performed with a split pin or a pin and ring or a plain pin. Each spot contained between 0.5 and 10 nl depending on the type of pin used and its diameter.
(§2) The slides were washed 4×1 min in Washing Buffer (EAT, Namur, Belgium). The slides were then incubated for 1 h with 500 μl of a specific rabbit detection antibody against phospho-Akt diluted 500× in Blocking Buffer (EAT, Namur, Belgium). The slides were washed 4×1 min in Washing Buffer. The slides were then incubated for 45 min at room temperature with a conjugated antibody (anti-rabbit Cy3) diluted 1000× in Blocking Buffer. The slides were washed 4×1 min in Washing Buffer and then rinsed twice in water. The slides were scanned in a laser confocal scanner “ScanArray” (Packard, USA) at a resolution of 10 μm.
(§3) The assay was performed as described in Example 1, but two identical arrays were present on each slide. The capture antibodies spotted on the left and right arrays were the same, but the detection antibodies were either specific to the phospho-Akt (right arrays) or to the total Akt (left arrays). Four different mixes were prepared as follows: (1) 40 ng of purified Akt and 40 ng of purified phospho Akt; (2) 40 ng of purified Akt and 20 ng of purified phospho Akt; (3) 40 ng of purified Akt and 10 ng of purified phospho Akt; (4) 40 ng of purified Akt and 5 ng of purified phospho Akt. In this experiment, four slides were used. […] The intensity of the spots on each array was then quantified and the results clearly show decreasing signal intensities correlating with decreasing concentrations of phospho-Akt on the right arrays. The calculated ratios of phospho vs. total Akt directly relates to the known concentration used in the four different mixes.
(§4) Each slide contained 2 identical arrays. The two arrays were incubated with the same samples possibly containing the proteins to be detected. The left array was then incubated with a mixture of 7 detection antibodies directed against the 7 proteins to be detected. The right array was incubated with a mixture of 7 detection antibodies directed against the phospho-specific form of the 7 proteins to be detected. […] The samples consisted of each of the 7 proteins to be detected, in their non-phosphorylated or phosphorylated form, or combinations thereof.
(§5) The experiment was performed on slides containing a double array as presented in Example 4. […] The protein chips allowed to simultaneously quantify the level of phosphorylation of p38 and JNK1/2 due to the effect of anisomycin on cells.

[2] = test system: p38; test: Level of phosphorylation of p38 in anisomycin-treated Jurkat cells on multiplex arrays
Description: as §1, §2, §3, §4, §5

[3] = test system: Erk1/2; test: Phosphorylation status of Erk1/2 in PMA-treated Jurkat cells on double antibody array; settings: PMA 0.1 to 1000 ng/ml, 10 minutes
[4] = 8 different concentrations of anisomycin

Compound | level of phospho form of JNK1/2 [1, 4] | level of total JNK1/2 [1, 4] | ratio of Phospho vs. total forms of JNK1/2 ([1]; anisomycin 0.01 μM) | ratio of Phospho vs. total forms of JNK1/2 ([1]; anisomycin 1 μM) | level of phospho form of p38 [2, 4] | level of total p38 [2, 4] | ratio of Phospho vs. total forms of p38 ([2]; anisomycin 1 μM) | ratio of Phospho vs. total forms of p38 ([2]; anisomycin 100 μM) | amount of Erk1/2 (total protein) [3] | levels of phosphorylation at threonine 185 and tyrosine 187 of Erk1/2 [3]
COc1ccc(C[C@H]2NC[C@H](O)[C@H]2OC(C)=O)cc1 [anisomycin] | increase with the anisomycin concentration | remain constant | 0.33 | 0.88 | increase with the anisomycin concentration | remain constant | 0.33 | 1.0 |  | 
CCCCCCCCCCCCCC(=O)O[C@@H]1[C@@H](C)[C@@]2(O)[C@@H](C=C(CO)C[C@]3(O)C(=O)C(C)=C[C@@H]23)[C@@H]2C(C)(C)[C@]12OC(C)=O [PMA, phorbol 12-myristate 13-acetate] |  |  |  |  |  |  |  |  | remains constant | increase with the amount of PMA
